The target of one assay is T1, SM80.1 (Solanum virginianum, UniProt A0A158RFR1).
T1 construct: native protein from seeds (ammonium sulphate fraction, gel filtration); 45 kDa band; homotrimer; 392 residues in structure
T1 sequence (A0A158RFR1 1-392): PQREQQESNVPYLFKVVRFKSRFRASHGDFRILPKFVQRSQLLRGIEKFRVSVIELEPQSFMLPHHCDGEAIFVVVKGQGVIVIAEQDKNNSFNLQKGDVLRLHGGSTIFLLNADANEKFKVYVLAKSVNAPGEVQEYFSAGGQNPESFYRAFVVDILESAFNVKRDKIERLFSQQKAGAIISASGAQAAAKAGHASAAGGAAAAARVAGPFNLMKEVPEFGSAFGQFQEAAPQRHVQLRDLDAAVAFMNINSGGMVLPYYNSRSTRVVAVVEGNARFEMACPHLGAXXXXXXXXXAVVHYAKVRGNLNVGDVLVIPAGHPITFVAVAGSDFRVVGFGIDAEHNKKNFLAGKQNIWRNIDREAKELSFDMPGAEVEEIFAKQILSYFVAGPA
The assay can be described thus: X-ray crystal structure, […] Å. It counts as binding. The following applies: crystals from PEG 3350, sodium malonate, 25°C.

The target of assay [1] is SM80.1, 7S vicilin from Solanum melongena (eggplant) seeds (Solanum melongena). Put plainly: crystal structure; R32 crystal form, 1.5 A; one monomer in the asymmetric unit, trimer formed around the threefold crystallographic axis; crystals grown in 10% (w/v) PEG 3350, 1.5 M-2 M sodium malonate, hanging drop, 25°C.

Usually stoichiometry N stands for a count of units in the complex or per binding partner.

For the compound `O=C1CC[C@@H](C(=O)O)N1` [PCA, pyroglutamate], the “X-ray crystal structure, 1.5 Å” value on SM80.1 (co-purified endogenous ligand, N-terminal beta-barrel pocket (His65, Cys67)) was “The N-terminal domain has cyclic lactam of glutamate, called pyroglutamate”.

With “SM80.1, 7S vicilin from Solanum melongena (eggplant) seeds (natural protein)”, in assay [1], the stoichiometry N is 3.

As for `CC(=O)O` [ACT, acetate], the “X-ray crystal structure, 1.5 Å” value at SM80.1 (bound without being listed in crystallisation mix, C-terminal beta-barrel pocket (Tyr260, Asn262, Arg267, Lys346)) was “Acetate moiety was present in the corresponding pocket in the C-terminal domain”.

The record behind these values is paper PMC4804240, “Crystal structure of the vicilin from Solanum melongena reveals existence of different anionic ligands in structurally similar pockets” (Scientific Reports, 2016).
